Measurements from ChEMBL document CHEMBL1201862, “PubChem BioAssay data set” (2004).
Calls of active or inactive are those of the source.

Experiments:
HEK293 [1] = experiment: optical interference in Abeta FP readout, dose response, artefact control for IDE activator project, biochemical, fluorescence polarization (AID 588442); type: functional, cell-based; conditions: Homo sapiens
[2] = biological target: T1, Ubiquitin-conjugating enzyme E2 N (Homo sapiens, UniProt P61088); type: functional
T1 sequence (P61088 whole entry): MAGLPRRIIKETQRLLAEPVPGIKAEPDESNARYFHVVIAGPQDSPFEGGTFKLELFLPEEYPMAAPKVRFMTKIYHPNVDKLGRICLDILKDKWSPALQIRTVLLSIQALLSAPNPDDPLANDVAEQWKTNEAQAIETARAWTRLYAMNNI

[3] = fluconazole-exposed Candida albicans growth modulators – fluorescence, retest, confirmation (AID 2467); type: functional, cell-based
Bcl-2-related protein A1 = biological target: T2, Bcl-2-related protein A1 (Mus musculus, UniProt Q07440); type: functional;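 also: confirmatory dose–response counterscreen on Bfl-1, used to check hits from a UBC13 polyubiquitin inhibitor campaign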
T2 sequence (Q07440 whole entry): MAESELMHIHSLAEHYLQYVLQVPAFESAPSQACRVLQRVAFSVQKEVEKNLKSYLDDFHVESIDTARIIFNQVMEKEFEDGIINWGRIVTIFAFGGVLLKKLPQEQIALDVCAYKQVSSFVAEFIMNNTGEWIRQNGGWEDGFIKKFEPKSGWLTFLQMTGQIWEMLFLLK

[4] = biological target: T3, Apoptotic protease-activating factor 1 (Homo sapiens, UniProt O14727); type: functional
T3 sequence (O14727 whole entry): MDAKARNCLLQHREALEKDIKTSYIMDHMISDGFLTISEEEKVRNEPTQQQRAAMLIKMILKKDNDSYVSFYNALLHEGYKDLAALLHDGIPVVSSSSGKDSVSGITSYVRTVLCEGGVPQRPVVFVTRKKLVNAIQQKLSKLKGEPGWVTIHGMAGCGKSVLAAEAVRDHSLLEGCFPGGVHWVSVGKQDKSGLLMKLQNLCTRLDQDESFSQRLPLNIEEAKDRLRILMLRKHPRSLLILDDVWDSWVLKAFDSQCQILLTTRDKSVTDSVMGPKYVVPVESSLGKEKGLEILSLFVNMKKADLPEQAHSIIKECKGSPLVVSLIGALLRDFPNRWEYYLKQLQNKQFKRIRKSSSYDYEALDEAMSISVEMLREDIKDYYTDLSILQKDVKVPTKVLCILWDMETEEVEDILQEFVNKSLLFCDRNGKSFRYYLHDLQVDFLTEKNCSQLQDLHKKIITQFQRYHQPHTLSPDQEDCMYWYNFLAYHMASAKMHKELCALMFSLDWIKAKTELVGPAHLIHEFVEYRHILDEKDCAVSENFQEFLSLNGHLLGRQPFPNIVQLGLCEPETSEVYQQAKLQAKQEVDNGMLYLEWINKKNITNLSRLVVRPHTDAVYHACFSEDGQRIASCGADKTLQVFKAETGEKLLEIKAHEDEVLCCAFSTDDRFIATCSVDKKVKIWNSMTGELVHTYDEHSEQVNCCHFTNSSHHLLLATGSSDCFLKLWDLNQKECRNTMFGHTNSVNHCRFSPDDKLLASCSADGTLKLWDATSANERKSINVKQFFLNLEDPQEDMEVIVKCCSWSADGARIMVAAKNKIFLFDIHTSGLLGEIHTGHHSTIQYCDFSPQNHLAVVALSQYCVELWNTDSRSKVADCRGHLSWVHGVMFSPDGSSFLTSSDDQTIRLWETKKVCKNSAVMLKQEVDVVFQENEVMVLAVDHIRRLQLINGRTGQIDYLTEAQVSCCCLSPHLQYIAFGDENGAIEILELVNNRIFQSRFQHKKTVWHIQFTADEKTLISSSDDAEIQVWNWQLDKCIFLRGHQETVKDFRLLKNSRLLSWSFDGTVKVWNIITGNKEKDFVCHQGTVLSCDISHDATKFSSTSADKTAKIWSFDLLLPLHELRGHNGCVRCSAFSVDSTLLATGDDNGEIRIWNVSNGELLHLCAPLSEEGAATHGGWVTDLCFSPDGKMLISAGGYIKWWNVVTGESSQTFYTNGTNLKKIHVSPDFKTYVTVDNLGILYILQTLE

HEK293 [5] = experiment: membrane integrity loss in HEK cells – cell-based, fluorescence, cytotoxicity control for IDE activator project, dose response (AID 588440); type: functional; conditions: Homo sapiens;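 also: cytotoxicity by LDH release measuring loss of membrane integrity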
[6] = biological target: T1, Ubiquitin-conjugating enzyme E2 N; type: functional; remark: listed apart in the source
[7] = NIH-3T3 fibroblast cytotoxicity, dose response, cytotoxicity control, cell-based, fluorescence, Alamar Blue, secondary assay (AID 2327); type: functional;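 also: NIH-3T3 mouse fibroblasts cultured with fluconazole at 8 µg/mL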
Insulin-degrading enzyme [8] = biological target: T4, Insulin-degrading enzyme (Homo sapiens, UniProt P14735); experiment: recombinant IDE activation, cell-free – biochemical, fluorescence polarization, counter-screen for IDE activator project, dose response (AID 588681)
T4 sequence (P14735 whole entry): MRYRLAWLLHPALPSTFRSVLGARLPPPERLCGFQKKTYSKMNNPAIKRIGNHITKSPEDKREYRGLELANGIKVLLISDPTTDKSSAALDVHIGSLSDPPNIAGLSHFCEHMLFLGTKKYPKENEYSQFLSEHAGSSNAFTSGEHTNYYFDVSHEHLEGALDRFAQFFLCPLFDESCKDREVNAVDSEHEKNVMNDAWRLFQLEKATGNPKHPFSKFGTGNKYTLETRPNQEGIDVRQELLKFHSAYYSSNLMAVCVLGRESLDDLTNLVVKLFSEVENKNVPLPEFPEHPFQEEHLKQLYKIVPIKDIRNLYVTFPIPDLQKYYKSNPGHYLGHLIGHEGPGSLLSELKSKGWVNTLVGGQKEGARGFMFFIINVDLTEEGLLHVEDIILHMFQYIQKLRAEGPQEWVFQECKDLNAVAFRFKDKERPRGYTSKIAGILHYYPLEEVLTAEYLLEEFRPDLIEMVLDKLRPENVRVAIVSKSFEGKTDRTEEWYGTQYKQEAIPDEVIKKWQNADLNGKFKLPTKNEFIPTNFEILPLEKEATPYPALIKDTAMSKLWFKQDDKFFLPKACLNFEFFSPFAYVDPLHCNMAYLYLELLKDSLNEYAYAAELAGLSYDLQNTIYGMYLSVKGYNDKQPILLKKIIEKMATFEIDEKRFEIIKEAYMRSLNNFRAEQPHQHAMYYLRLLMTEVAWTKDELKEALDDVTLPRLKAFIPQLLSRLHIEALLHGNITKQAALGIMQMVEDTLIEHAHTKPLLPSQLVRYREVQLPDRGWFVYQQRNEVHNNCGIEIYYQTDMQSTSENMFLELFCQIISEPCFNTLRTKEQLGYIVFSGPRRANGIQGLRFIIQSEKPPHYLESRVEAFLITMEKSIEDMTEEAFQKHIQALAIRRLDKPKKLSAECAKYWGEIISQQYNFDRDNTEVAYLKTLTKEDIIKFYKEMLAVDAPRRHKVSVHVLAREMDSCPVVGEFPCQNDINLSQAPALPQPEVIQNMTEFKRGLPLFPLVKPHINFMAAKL

[9] = microbe, parasite or virus in culture; type: functional; conditions: Mycobacterium tuberculosis
Insulin-degrading enzyme [10] = biological target: T4, Insulin-degrading enzyme; experiment: cellular IDE activation of Abeta substrate cleavage – fluorescence polarization, HEK cells, dose response (AID 588439); type: functional, cell-based
[11] = biological target: T5, High affinity choline transporter 1 (Homo sapiens, UniProt Q9GZV3); experiment: human choline transporter blockers, potency – cell-based, 10-point CRC, membrane potential dye, dose response (AID 588401); type: functional;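 also: membrane potential dye fluorescence of choline-evoked depolarization via CHT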
T5 sequence (Q9GZV3 whole entry): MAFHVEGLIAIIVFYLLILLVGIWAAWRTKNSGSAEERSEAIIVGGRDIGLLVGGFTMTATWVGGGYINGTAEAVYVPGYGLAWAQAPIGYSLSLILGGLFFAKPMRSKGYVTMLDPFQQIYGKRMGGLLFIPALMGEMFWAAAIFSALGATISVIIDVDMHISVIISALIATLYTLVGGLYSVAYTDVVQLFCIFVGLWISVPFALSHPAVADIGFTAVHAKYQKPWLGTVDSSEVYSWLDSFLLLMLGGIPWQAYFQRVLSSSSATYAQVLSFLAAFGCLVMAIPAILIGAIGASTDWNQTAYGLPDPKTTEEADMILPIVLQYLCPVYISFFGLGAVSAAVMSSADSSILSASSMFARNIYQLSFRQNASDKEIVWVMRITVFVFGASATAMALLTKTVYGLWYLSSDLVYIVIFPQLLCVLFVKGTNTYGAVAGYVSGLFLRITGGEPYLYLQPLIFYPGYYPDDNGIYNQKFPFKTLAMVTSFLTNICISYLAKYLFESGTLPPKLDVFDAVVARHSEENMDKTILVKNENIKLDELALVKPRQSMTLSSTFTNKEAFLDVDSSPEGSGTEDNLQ

[12] = biological target: T5, High affinity choline transporter 1; experiment: human choline transporter blockers, potency – cell-based, 5-point CRC, membrane potential dye, dose response (AID 504840); type: functional
[13] = biological target: T5, High affinity choline transporter 1; experiment: human choline transporter radiolabel uptake blockers – cell-based, 3H-choline uptake, CHT LV-AA trafficking mutant, CRC, dose response (AID 602208); type: functional
[14] = biological target: Ras and Rab interactor 1/Tyrosine-protein kinase ABL1 (Homo sapiens, UniProt P00519+Q13671); type: functional;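 also: biochemical TR-FRET dose-response test measuring inhibition of binding between Rin1 and Abl proteins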
Chain of Ras and Rab interactor 1/Tyrosine-protein kinase ABL1 (P00519 whole entry): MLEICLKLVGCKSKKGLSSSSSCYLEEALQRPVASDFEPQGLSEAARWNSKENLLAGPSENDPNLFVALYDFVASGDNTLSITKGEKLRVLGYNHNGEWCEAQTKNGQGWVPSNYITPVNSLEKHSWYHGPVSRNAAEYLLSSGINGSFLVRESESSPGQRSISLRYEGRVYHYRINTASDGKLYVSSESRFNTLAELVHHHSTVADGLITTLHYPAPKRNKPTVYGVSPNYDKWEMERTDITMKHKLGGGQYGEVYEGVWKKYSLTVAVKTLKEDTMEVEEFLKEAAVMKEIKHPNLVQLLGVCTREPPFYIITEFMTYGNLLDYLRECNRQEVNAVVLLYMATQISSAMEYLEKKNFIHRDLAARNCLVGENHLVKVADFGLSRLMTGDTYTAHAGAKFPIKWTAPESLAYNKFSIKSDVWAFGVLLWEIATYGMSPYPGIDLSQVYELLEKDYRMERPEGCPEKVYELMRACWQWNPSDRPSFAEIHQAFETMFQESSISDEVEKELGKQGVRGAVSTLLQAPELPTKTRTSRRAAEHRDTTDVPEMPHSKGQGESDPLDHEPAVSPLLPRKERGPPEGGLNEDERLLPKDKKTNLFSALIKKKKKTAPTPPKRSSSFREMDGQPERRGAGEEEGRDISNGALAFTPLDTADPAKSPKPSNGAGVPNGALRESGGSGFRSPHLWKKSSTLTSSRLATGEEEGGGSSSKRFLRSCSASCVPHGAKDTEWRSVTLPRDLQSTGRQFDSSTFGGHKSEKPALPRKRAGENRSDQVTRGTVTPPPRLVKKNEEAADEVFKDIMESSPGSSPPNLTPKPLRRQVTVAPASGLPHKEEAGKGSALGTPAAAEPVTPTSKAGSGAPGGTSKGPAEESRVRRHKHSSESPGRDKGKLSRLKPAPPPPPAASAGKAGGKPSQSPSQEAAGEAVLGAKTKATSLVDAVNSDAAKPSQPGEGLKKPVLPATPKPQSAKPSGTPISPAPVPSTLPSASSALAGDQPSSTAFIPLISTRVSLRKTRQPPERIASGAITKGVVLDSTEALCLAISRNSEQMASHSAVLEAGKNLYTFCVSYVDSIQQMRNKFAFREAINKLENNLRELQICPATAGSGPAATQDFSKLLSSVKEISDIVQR
Chain of Ras and Rab interactor 1/Tyrosine-protein kinase ABL1 (Q13671 whole entry): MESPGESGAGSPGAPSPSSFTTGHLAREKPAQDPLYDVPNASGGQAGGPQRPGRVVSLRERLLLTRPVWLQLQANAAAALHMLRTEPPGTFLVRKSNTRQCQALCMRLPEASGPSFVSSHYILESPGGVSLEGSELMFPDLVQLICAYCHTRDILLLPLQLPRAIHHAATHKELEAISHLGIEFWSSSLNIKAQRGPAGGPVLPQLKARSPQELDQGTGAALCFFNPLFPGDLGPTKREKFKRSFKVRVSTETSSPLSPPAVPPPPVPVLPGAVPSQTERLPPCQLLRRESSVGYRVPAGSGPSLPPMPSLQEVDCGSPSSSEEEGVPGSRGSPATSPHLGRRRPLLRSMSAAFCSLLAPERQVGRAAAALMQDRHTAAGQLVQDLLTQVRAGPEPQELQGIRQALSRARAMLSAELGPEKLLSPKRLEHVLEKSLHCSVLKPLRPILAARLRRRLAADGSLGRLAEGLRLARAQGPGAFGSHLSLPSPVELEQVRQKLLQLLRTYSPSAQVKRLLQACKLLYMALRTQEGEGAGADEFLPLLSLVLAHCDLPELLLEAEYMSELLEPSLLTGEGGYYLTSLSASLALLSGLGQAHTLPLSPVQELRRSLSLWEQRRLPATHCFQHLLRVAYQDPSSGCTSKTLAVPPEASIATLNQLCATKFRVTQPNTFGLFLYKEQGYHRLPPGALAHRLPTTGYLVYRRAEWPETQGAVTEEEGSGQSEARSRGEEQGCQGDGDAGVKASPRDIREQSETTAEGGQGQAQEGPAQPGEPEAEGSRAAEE

Interleukin-8 [15] = biological target: T6, Interleukin-8 (Homo sapiens, UniProt P10145); experiment: Dose Response confirmation of uHTS small molecule hits for cystic fibrosis induced NFkb Inhibitors in a TNFa-induced IL8 counterscreen.; type: functional; conditions: read-out: IC50_Mean
T6 sequence (P10145 whole entry): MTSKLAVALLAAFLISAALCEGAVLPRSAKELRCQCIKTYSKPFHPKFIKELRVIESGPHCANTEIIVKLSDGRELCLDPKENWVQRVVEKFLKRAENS

Interleukin-8 [16] = biological target: T6, Interleukin-8; experiment: Dose Response confirmation of uHTS small molecule hits for cystic fibrosis induced NFkb Inhibitors in a PAF-induced IL8 counterscreen.; type: functional; conditions: read-out: IC50_Mean
[17] = biological target: DNA repair and recombination protein RAD54-like (Homo sapiens, UniProt Q92698); experiment: RAD54 Holliday junction migration blockers – biochemical, fluorescence, cherry-picked samples, dose series, confirmation (AID 651657); type: functional
Chain of DNA repair and recombination protein RAD54-like (Q92698 whole entry, the tested form may be a part): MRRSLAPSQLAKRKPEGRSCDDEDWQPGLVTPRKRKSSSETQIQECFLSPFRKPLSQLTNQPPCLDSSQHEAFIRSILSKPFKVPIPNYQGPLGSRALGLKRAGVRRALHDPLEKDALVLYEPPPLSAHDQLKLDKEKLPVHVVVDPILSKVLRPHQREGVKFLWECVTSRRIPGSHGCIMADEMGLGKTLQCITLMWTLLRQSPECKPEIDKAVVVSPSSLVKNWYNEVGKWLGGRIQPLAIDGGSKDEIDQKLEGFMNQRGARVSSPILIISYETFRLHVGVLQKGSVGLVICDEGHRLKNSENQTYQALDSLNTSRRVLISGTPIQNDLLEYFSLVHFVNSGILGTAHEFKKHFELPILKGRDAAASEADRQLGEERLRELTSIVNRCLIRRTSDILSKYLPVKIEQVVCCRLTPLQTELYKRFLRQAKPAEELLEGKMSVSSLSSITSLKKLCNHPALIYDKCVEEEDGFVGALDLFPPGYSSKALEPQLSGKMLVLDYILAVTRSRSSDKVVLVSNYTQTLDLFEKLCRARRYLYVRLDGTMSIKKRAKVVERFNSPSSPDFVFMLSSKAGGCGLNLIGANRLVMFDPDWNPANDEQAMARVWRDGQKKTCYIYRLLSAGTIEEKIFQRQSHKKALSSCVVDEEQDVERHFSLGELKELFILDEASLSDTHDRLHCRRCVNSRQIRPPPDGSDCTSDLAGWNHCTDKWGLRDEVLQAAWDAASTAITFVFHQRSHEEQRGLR

[18] = inhibition of ARNT PAS-B/TACC3 complex formation – biochemical, AlphaScreen, cherry-picked samples, confirmation (AID 651703); type: functional, Homo sapiens;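 also: His-tagged ARNT PAS-B domain paired with GST-TACC3 E629A dimer coactivator fragment; potency of inhibitors that break up the complex and lower AlphaScreen signal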
[19] = biological target: T7, Neuropeptides B/W receptor type 1 (Homo sapiens, UniProt P48145); experiment: human NPBW1 receptor blockade, IC50 – cell-based, fluorescence, dose response, set 5, late-stage follow-up (AID 588566); type: functional
T7 sequence (P48145 whole entry): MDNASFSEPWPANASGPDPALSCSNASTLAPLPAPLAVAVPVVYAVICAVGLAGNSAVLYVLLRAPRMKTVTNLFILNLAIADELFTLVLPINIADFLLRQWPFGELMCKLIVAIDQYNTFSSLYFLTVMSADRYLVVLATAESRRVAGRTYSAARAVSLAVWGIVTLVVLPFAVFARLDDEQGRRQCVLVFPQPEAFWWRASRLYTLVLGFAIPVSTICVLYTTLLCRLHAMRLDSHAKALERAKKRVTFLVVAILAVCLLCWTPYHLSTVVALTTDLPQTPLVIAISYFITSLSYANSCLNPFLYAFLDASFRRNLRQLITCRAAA

[20] = biological target: Melanin-concentrating hormone receptor 1 (Homo sapiens, UniProt Q99705); experiment: Late-stage fluorescence-based counterscreen for antagonists of the G-protein coupled receptor 7 (GPR7): cell-based dose response assay to identify antagonists of the melanin-concentrating hormone receptor 1 (MCHR1) Set 5.; type: functional
Chain of Melanin-concentrating hormone receptor 1 (Q99705 whole entry): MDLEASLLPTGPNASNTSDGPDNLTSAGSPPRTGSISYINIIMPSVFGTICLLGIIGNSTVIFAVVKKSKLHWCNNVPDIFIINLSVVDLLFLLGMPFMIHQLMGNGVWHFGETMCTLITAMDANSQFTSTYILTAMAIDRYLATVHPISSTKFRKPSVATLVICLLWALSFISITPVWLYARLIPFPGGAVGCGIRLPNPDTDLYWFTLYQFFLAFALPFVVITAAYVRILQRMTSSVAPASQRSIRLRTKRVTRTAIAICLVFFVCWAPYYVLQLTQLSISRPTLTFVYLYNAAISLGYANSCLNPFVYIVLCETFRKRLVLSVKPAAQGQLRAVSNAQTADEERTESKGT

[21] = biological target: Mitochondrial peptide methionine sulfoxide reductase (Bos taurus, UniProt P54149); type: functional;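 also: absorbance read-out, biochemical high-throughput dose-response screen for MsrA inhibitors, confirmatory; recombinant bovine MsrA coupled to E. coli TrxB with NADPH and selenocystamine; potency is for inhibitors of MsrA activity on DMSO substrate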
Chain of Mitochondrial peptide methionine sulfoxide reductase (P54149 whole entry): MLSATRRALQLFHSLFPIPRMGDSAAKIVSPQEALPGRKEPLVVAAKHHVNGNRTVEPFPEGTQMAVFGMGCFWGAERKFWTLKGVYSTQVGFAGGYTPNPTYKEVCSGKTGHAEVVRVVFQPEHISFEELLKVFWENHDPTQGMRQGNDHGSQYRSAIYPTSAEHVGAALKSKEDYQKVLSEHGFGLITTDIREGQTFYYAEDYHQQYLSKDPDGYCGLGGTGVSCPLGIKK

[22] = biological target: T8, Calpain-2 catalytic subunit (Sus scrofa, UniProt P43367); experiment: m-calpain protease blockers, concentration series – biochemical, fluorogenic peptide substrate, dose response (AID 1420); type: functional
T8 sequence (P43367 whole entry): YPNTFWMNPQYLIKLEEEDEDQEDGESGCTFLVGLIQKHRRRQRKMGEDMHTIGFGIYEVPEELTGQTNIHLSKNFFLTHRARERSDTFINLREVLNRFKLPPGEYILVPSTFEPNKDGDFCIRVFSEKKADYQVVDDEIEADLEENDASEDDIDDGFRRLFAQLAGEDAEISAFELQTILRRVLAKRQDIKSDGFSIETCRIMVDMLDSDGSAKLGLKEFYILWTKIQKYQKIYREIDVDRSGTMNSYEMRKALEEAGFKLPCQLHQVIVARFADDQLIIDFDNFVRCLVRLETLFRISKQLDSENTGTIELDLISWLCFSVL

Activin receptor type-1 = Activin receptor type-1 (Homo sapiens, UniProt Q04771); experiment: Navigating the Kinome. Panel member name: ACVR1; type: functional
Chain of Activin receptor type-1 (Q04771 whole entry): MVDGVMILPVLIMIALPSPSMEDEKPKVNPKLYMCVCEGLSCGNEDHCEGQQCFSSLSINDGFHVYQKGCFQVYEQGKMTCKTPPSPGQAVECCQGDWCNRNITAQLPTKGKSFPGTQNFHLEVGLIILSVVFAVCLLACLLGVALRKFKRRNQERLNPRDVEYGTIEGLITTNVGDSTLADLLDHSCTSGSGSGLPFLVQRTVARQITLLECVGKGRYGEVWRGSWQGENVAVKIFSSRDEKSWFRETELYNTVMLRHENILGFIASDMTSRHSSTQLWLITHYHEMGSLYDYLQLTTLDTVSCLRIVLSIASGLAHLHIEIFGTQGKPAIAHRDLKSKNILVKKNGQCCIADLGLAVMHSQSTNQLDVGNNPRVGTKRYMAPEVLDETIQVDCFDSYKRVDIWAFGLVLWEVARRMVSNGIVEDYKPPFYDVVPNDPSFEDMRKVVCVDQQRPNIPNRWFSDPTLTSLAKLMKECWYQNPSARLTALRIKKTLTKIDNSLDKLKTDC

## NC1=NC[C@H](CC2CCCCC2)N1CCc1cc(C(F)(F)F)cc(C(F)(F)F)c1
HEK293 [1]
  EC50: > 54.7 µM (inactive)
[2]
  IC50: 17.2 µM (active)
[3]
  EC50: 7.64 µM (active)
Bcl-2-related protein A1
  IC50: > 20 µM (inactive)
[4]
  IC50: 74.7 µM (active)
HEK293 [5]
  IC50: 10.9 µM (inactive)
[6]
  IC50: 14.6 µM (active)
[7]
  EC50: 65.2 µM (active)
Insulin-degrading enzyme [8]
  EC50: > 54.7 µM (inactive)
[9]
  CC50: 26 µM (active)
Insulin-degrading enzyme [10]
  EC50: 9.93 µM (active)

## O=C(Nc1ccc(S(=O)(=O)NC2=NCCCCC2)cc1)c1ccc(Cl)cc1Cl
[11]
  IC50: 4.47 µM (active)
[12]
  IC50: 7.42 µM (active)
[13]
  IC50: 0.864 µM (active)

## CC1(C)Cc2nc3sc4c(=O)[nH]cnc4c3cc2CS1
[14]
  IC50: > 0.302 µM (active)

## Brc1ccc2ncnc(NCc3cccnc3)c2c1
Interleukin-8 [15]
  IC50: 1.77 µM (active)
Interleukin-8 [16]
  IC50: 4.61 µM (active)

## CN(C)CCN(C(=O)c1ccc2c(c1)OCCO2)c1nc2c(Cl)cccc2s1
[17]
  AC50: 55.1 µM (active)

## NC(=O)c1[nH]cnc1N
[18]
  AC50: 90.5 µM (active)

## CCOC(=O)C(C#N)c1c(Cl)cnn(C2c3ccccc3-c3ccccc32)c1=O (stereo unspecified)
[19]
  IC50: 2.9 µM (active)
[20]
  IC50: 7.86 µM (active)

## O=C(C1CCCCN1C1c2ccccc2CCc2ccccc21)N1CCN(c2ccc([N+](=O)[O-])cc2)CC1 (stereo unspecified)
[19]
  IC50: > 20 µM (inactive)
[20]
  IC50: > 20 µM (inactive)

## CCOC(=O)C(C)/C(C)=N\Nc1ccc([N+](=O)[O-])cc1[N+](=O)[O-] (stereo unspecified)
[21]
  IC50: 155 µM (inactive)
[22]
  IC50: > 50 µM (not active)

## C=CCn1c(=O)c2cnc(Nc3ccc(N4CCN(C)CC4)cc3)nc2n1-c1cccc(C(C)(C)O)n1 [ADAVOSERTIB]
Activin receptor type-1
  Ki: > 3.98 µM (inactive)
